Target: Cholesteryl ester transfer protein (Homo sapiens) (UniProt P11597)
Assay: inhibition of human CETP assessed as cholesteryl ester transfer by fluorescence transfer assay relative to control
Design: concentration or dose not given beside the values
Details: concentration not given here

Cholesteryl ester transfer protein (Homo sapiens), sequence (P11597 whole entry, looked up): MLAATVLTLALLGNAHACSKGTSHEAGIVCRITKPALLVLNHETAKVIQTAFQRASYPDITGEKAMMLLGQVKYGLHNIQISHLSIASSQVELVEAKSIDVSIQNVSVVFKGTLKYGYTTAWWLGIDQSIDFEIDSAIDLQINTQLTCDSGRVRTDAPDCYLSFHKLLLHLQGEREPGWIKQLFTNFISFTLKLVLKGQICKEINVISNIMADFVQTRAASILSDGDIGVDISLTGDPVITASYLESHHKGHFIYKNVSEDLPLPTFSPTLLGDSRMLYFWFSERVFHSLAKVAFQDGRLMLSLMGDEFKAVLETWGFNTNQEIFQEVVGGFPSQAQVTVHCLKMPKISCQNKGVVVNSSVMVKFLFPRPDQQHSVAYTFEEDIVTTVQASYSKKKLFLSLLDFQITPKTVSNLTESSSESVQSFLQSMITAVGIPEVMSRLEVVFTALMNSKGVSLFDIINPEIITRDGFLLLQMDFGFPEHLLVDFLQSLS

`Cc1ccc2oc(-c3ccc(NC(=O)COc4ccccc4C)cc3)nc2c1` gave an inhibition of 89%.
Work on `Cc1ccccc1OCC(=O)Nc1ccc(-c2nc3cc([N+](=O)[O-])ccc3o2)cc1` yielded an inhibition of 79%.
`Cc1ccccc1OCC(=O)Nc1ccc(-c2nc3cccc(Cl)c3o2)cc1` gave an inhibition of 71%.
For `Cc1ccccc1OCC(=O)Nc1ccc(-c2nc3ccc(F)cc3o2)cc1`, the inhibition was 50%.
For `Cc1ccccc1OCC(=O)Nc1ccc(-c2nc3cccc(F)c3o2)cc1`, the inhibition was 36%.
Work on `Cc1ccccc1OCC(=O)Nc1ccc(-c2nc3c([N+](=O)[O-])cccc3o2)cc1` yielded an inhibition of 42%.
Work on `Cc1ccc2nc(-c3ccc(NC(=O)COc4ccccc4C)cc3)oc2c1` yielded an inhibition of 34%.
`Cc1ccccc1OCC(=O)Nc1ccc(-c2nc3ccc([N+](=O)[O-])cc3o2)cc1` was tested, and the inhibition was 71%.

— ChEMBL document CHEMBL1153121, “2-Arylbenzoxazoles as CETP inhibitors: Substitution of the benzoxazole moiety” (Bioorg Med Chem Lett, 2010)
